Reference: patent US20130053365A1, “DIHYDROPYRIDOPHTHALAZINONE INHIBITORS OF POLY(ADP-RIBOSE)POLYMERASE (PARP)” (BioMarin Pharmaceutical, Inc., priority 2011, published 2013)
Where “and” joins values, the source holds several entries; their conditions need not be identical. Equal values may be shown once.

What was measured:
PARP-1 [1] = target: T1, PARP-1 (Homo sapiens, UniProt P09874); experiment: Universal Chemiluminescent PARP Assay (Trevigen kit), inhibition of human PARP 1 enzyme; assay type: biochemical; parameters: purchased Trevigen 4676-096-K; conditions: recombinant human PARP 1 enzyme, read-out: PARP-inhibitory activity
Method: Inhibitory effects of test compounds against human PARP 1 enzyme are assessed using Trevigen's Universal Chemiluminescent PARP Assay Kit (Trevigen CAT #4676-096-K) following the manufacturer's recommended protocol.
Immediately prior to performing the assay, the following reagents are prepared: A) 20× PARP Assay Buffer is diluted to 1× with dH2O; B) 10× PARP Cocktail, which contains a mixture of NAD and biotinylated NAD, is diluted by the addition of 10× Activated DNA and 1× PARP Assay Buffer. Both the PARP Cocktail and Activated DNA are 1× after the dilution; C) all test compounds are initially dissolved in DMSO, and subsequently serial diluted with 1× PARP Assay Buffer; D) recombinant human PARP 1 enzyme is diluted with 1× PARP Assay Buffer to generate 0.5 unit/15 μL; E) 10× Strep-Diluent is diluted to 1× with 1× PBS/0.1% Triton X-100; F) Just before use, Strep-HRP is diluted 500-fold with 1× Strep-Diluent.
The chemiluminescent assays for PARP activity is performed in white 96-well plates that are pre-coated with histones. […]
The reactions are allowed to proceed for 1 hour at room temperature. […] The light output is immediately determined in a plate reader (EnVision, by Perkin Elmer) set up for measuring chemiluminescence.
The % enzyme activity for each compound is then calculated using the following equation: […]
Target sequence in this assay (P09874 whole entry): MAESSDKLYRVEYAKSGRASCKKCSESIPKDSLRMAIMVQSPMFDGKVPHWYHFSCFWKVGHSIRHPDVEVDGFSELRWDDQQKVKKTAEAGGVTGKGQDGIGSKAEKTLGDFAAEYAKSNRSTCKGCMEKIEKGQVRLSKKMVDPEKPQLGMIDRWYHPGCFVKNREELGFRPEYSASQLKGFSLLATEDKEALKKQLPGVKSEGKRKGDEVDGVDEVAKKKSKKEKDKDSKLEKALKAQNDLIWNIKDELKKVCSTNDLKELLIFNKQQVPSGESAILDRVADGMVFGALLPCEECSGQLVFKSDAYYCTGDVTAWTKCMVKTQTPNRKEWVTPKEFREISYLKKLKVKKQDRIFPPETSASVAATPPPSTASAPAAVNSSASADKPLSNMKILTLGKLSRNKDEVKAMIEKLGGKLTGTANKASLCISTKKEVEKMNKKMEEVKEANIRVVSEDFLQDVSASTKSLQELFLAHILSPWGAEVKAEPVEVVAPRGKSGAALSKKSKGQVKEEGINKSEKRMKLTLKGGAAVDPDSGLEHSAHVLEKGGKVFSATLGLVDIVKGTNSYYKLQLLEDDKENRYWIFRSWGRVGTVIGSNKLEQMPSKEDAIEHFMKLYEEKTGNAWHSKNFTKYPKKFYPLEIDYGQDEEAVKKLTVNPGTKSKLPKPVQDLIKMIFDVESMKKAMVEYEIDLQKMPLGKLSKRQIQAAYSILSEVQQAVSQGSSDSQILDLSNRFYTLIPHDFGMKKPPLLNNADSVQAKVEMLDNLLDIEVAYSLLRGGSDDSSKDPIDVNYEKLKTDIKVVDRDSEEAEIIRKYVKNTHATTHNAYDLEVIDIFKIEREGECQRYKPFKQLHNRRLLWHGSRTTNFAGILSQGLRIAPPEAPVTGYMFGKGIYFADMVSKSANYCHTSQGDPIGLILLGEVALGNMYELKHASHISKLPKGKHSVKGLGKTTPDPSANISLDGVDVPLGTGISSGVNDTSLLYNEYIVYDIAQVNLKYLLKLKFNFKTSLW

CAPAN-1 cells = CAPAN-1 cells in DMEM with FCS (20% v/v), glutamine and antibiotics; cited from earlier work
[2] = test system: BRCA2-deficient cell line V-C8; conditions: BRCA2-deficient V-C8 compared with BRCA2 wild type control; cited from earlier work
PARP-1 [3] = target: T1, PARP-1; conditions: literature value, Farmer et al., Nature 2005; read-out: Ki (PARP-1 inhibitor); cited from earlier work
Target sequence in this assay (P09874 whole entry, species assumed): as the sequence (P09874 whole entry) above

IC50 (PARP-1 [1]) | Compound | sensitivity to PARP inhibition in clonogenic survival assay (CAPAN-1 cells) | sensitivity in clonogenic survival assay [2] | Ki (PARP-1 [3]) [nM]
< 800 nM and 250 to 300 nM | Cn1ncnc1C1c2n[nH]c(=O)c3cc(F)cc(c23)NCC1c1ccc(F)cc1 (stereo not drawn) [Compound 40, 5-fluoro-9-(4-fluorophenyl)-10-(1-methyl-1H-1,2,4-triazol-5-yl)-7,8,9,10-tetrahydroazepino[4,3,2-de]phthalazin-3(2H)-one] |  |  | 
 | O=C(c1cc(Cc2n[nH]c(=O)c3ccccc23)ccc1F)N1CCN(C(=O)C2CC2)CC1 [AZD2281] | showing sensitivity to PARP inhibition |  | 
 | CN(C)Cc1ccc(-c2nc3cccc4c3n2CCNC4=O)cc1 [AG14361] |  | exhibited sensitivity | 5
 | Cc1nc2c(O)cccc2c(=O)[nH]1 [NU1025] |  | exhibited sensitivity | 50
